According to PubChem BioAssay AID1963850 (Molecular Pharmacology Branch, DTP, NCI, 2024):

Test system: 192522-019-R-J2-PDC complex tumor spheroid viability
Assay: Anticancer human tumor 192522-019-R-J2-PDC patient-derived colon adenocarcinoma cell line growth inhibition [POLQ]
Settings: for IC50: curve of first compound; for viability, T/C: stronger effect = lower value
Method in brief: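 Complex spheroid viability model combining PDC tumour cells with endothelial (HUVEC) and MSC stromal cells. Novobiocin, ART-558 or RP6685 were tested singly and in combination with standard and investigational anticancer drugs. Each was titrated in half-log steps from near clinical Cmax, or from 10 microM where Cmax was unknown.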

[1] = second compound 0.0316 µM, first compound 0.0316 µM
[2] = second compound 0.0316 µM, first compound 0.1 µM
[3] = second compound 0.0316 µM, first compound 0.316 µM
[4] = second compound 0.0316 µM, first compound 1 µM
[5] = second compound 0.0316 µM, first compound 3.16 µM
[6] = second compound 0.0316 µM, first compound 10 µM
[7] = second compound 0.1 µM, first compound 0.0316 µM
[8] = second compound 0.1 µM, first compound 0.1 µM
[9] = second compound 0.1 µM, first compound 0.316 µM
[10] = second compound 0.1 µM, first compound 1 µM
[11] = second compound 0.1 µM, first compound 3.16 µM
[12] = second compound 0.1 µM, first compound 10 µM
[13] = second compound 0.316 µM, first compound 0.0316 µM
[14] = second compound 0.316 µM, first compound 0.1 µM
[15] = second compound 0.316 µM, first compound 0.316 µM
[16] = second compound 0.316 µM, first compound 1 µM
[17] = second compound 0.316 µM, first compound 3.16 µM
[18] = second compound 0.316 µM, first compound 10 µM
[19] = second compound 1 µM, first compound 0.0316 µM
[20] = second compound 1 µM, first compound 0.1 µM
[21] = second compound 1 µM, first compound 0.316 µM
[22] = second compound 1 µM, first compound 1 µM
[23] = second compound 1 µM, first compound 3.16 µM
[24] = second compound 1 µM, first compound 10 µM
[25] = second compound 3.16 µM, first compound 0.0316 µM
[26] = second compound 3.16 µM, first compound 0.1 µM
[27] = second compound 3.16 µM, first compound 0.316 µM
[28] = second compound 3.16 µM, first compound 1 µM
[29] = second compound 3.16 µM, first compound 3.16 µM
[30] = second compound 3.16 µM, first compound 10 µM
[31] = second compound 10 µM, first compound 0.0316 µM
[32] = second compound 10 µM, first compound 0.1 µM
[33] = second compound 10 µM, first compound 0.316 µM
[34] = second compound 10 µM, first compound 1 µM
[35] = second compound 10 µM, first compound 3.16 µM
[36] = second compound 10 µM, first compound 10 µM
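Also: spheroids exposed to drugs for seven days before reading.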
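For viability, T/C in this document: 100% = DMSO vehicle control viability in luminescence.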

Q: For `COc1ccc([C@@H](O)c2cc(-c3ncnc4cc(N5CCOCC5)ccc34)c(F)cc2Cl)nn1` + Nc1ccc(C#CCN(C(=O)Cc2ncc(C(F)(F)F)cc2C(F)(F)F)c2ccc(F)cc2)nn1, which IC50 (second compound 0.0316 µM) is on record?
A: > 10 µM

Q: What about the IC50 (second compound 0.1 µM) of the same compound?
A: > 10 µM

Q: And the IC50 (second compound 0.316 µM)?
A: > 10 µM

Q: And the IC50 (second compound 1 µM)?
A: > 10 µM

Q: And the IC50 (second compound 3.16 µM)?
A: > 10 µM

Q: And the IC50 (second compound 10 µM)?
A: > 10 µM

Q: And the viability, T/C [1]?
A: 116%

Q: And the viability, T/C [2]?
A: 97.3%

Q: And the viability, T/C [3]?
A: 93.7%

Q: And the viability, T/C [4]?
A: 85.8%

Q: What about the viability, T/C [5] of the same compound?
A: 75.8%

Q: And the viability, T/C [6]?
A: 55.4%

Q: And the viability, T/C [7]?
A: 106%

Q: And the viability, T/C [8]?
A: 97.4%

Q: What about the viability, T/C [9] of the same compound?
A: 98.7%

Q: What about the viability, T/C [10] of the same compound?
A: 90.1%

Q: And the viability, T/C [11]?
A: 86.2%

Q: What about the viability, T/C [12] of the same compound?
A: 65.5%

Q: What about the viability, T/C [13] of the same compound?
A: 100%

Q: What about the viability, T/C [14] of the same compound?
A: 101%

Q: What about the viability, T/C [15] of the same compound?
A: 102%

Q: And the viability, T/C [16]?
A: 102%

Q: What about the viability, T/C [17] of the same compound?
A: 75.3%

Q: What about the viability, T/C [18] of the same compound?
A: 59.9%

Q: And the viability, T/C [19]?
A: 102%

Q: And the viability, T/C [20]?
A: 104%

Q: And the viability, T/C [21]?
A: 98.1%

Q: What about the viability, T/C [22] of the same compound?
A: 90.8%

Q: What about the viability, T/C [23] of the same compound?
A: 93.2%

Q: And the viability, T/C [24]?
A: 75%

Q: And the viability, T/C [25]?
A: 107%

Q: And the viability, T/C [26]?
A: 101%

Q: What about the viability, T/C [27] of the same compound?
A: 99%

Q: What about the viability, T/C [28] of the same compound?
A: 93.6%

Q: What about the viability, T/C [29] of the same compound?
A: 84.1%

Q: What about the viability, T/C [30] of the same compound?
A: 65.9%

Q: And the viability, T/C [31]?
A: 104%

Q: And the viability, T/C [32]?
A: 111%

Q: What about the viability, T/C [33] of the same compound?
A: 102%

Q: What about the viability, T/C [34] of the same compound?
A: 102%

Q: What about the viability, T/C [35] of the same compound?
A: 82%

Q: What about the viability, T/C [36] of the same compound?
A: 73.2%

Q: For `CNCc1ccc(-c2[nH]c3cc(F)cc4c3c2CCNC4=O)cc1` + Nc1ccc(C#CCN(C(=O)Cc2ncc(C(F)(F)F)cc2C(F)(F)F)c2ccc(F)cc2)nn1, which IC50 (second compound 0.0316 µM) is on record?
A: > 10 µM

Q: And the IC50 (second compound 0.1 µM)?
A: > 10 µM

Q: What about the IC50 (second compound 0.316 µM) of the same compound?
A: > 10 µM

Q: What about the IC50 (second compound 1 µM) of the same compound?
A: > 10 µM

Q: And the IC50 (second compound 3.16 µM)?
A: > 10 µM

Q: And the IC50 (second compound 10 µM)?
A: > 10 µM

Q: What about the viability, T/C [1] of the same compound?
A: 103%

Q: And the viability, T/C [2]?
A: 106%

Q: And the viability, T/C [3]?
A: 102%

Q: And the viability, T/C [4]?
A: 113%

Q: What about the viability, T/C [5] of the same compound?
A: 122%

Q: What about the viability, T/C [6] of the same compound?
A: 111%

Q: And the viability, T/C [7]?
A: 105%

Q: And the viability, T/C [8]?
A: 98.7%

Q: What about the viability, T/C [9] of the same compound?
A: 110%

Q: What about the viability, T/C [10] of the same compound?
A: 102%

Q: What about the viability, T/C [11] of the same compound?
A: 104%

Q: And the viability, T/C [12]?
A: 105%

Q: What about the viability, T/C [13] of the same compound?
A: 107%

Q: And the viability, T/C [14]?
A: 106%

Q: What about the viability, T/C [15] of the same compound?
A: 96.5%

Q: What about the viability, T/C [16] of the same compound?
A: 103%

Q: What about the viability, T/C [17] of the same compound?
A: 106%

Q: And the viability, T/C [18]?
A: 107%

Q: And the viability, T/C [19]?
A: 119%

Q: What about the viability, T/C [20] of the same compound?
A: 100%

Q: What about the viability, T/C [21] of the same compound?
A: 105%

Q: What about the viability, T/C [22] of the same compound?
A: 104%

Q: And the viability, T/C [23]?
A: 111%

Q: And the viability, T/C [24]?
A: 107%

Q: What about the viability, T/C [25] of the same compound?
A: 103%

Q: And the viability, T/C [26]?
A: 108%

Q: What about the viability, T/C [27] of the same compound?
A: 95.3%

Q: What about the viability, T/C [28] of the same compound?
A: 104%

Q: What about the viability, T/C [29] of the same compound?
A: 110%

Q: And the viability, T/C [30]?
A: 101%

Q: And the viability, T/C [31]?
A: 108%

Q: What about the viability, T/C [32] of the same compound?
A: 101%

Q: And the viability, T/C [33]?
A: 105%

Q: What about the viability, T/C [34] of the same compound?
A: 102%

Q: And the viability, T/C [35]?
A: 110%

Q: What about the viability, T/C [36] of the same compound?
A: 106%
